Laboratory results as given in patent US10227357B2, “Compounds and methods for kinase modulation, and indications therefor” (Plexxikon Inc., priority 2012, dated 2019).

What was measured:
c-kit kinase = target: T1, c-kit kinase (Homo sapiens, UniProt P10721); assay: c-Kit biochemical assay, AlphaScreen, 10 μM ATP; conditions: c-kit biochemical inhibitory activity; read-out: Biochemical activity (IC50 μM) Kit
T1 construct: The c-kit (or kinase domain thereof) is an active kinase in AlphaScreen; poly-Histidine tag (in-house protein only) (cleaved yes); host or cells: E. coli BL21(DE3)RIL, co-expressed with PTP1B
Summary of the method: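 His-tagged c-Kit expressed in E. coli with co-expressed PTP1B (dephosphorylated), tag removed; 0.1 ng per reaction with biotinylated-peptide substrate in 50 mM HEPES pH 7.2, 5 mM MgCl2, 5 mM MnCl2, 5% DMSO, 10 μM ATP, 1 h at room temperature. Phosphorylation detected by AlphaScreen (streptavidin donor, PY20 acceptor beads); IC50 from 8-point 1:3 dilution series.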

c-kit mutant D816V = target: T2, c-kit mutant D816V (Homo sapiens, UniProt P10721, D816V/DEL694-753); assay: c-Kit mutant D816V biochemical assay, AlphaScreen; conditions: c-kit D816V biochemical inhibitory activity; read-out: Biochemical activity (IC50 μM) Kit D816V
T2 construct: residues 551-934, kinase insertion domain residues 694-753 deleted; 6x-histidine (N); made in house; host or cells: E. coli Arctic Express (DE3) RIL (Stratagene)
Summary of the method: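 Eight-point, threefold compound series incubated 30 min at room temperature with E. coli-produced D816V kinase, 10 μM ATP, Mg2+/Mn2+ HEPES buffer pH 7.2 and 5% DMSO. After EDTA stop, streptavidin and anti-phosphotyrosine (PY20) AlphaScreen beads gave the read-out, and IC50 was fitted from the concentration–signal curve.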

T2 sequence (P10721 with tags, fused parts or gaps DEL694-753/D816V): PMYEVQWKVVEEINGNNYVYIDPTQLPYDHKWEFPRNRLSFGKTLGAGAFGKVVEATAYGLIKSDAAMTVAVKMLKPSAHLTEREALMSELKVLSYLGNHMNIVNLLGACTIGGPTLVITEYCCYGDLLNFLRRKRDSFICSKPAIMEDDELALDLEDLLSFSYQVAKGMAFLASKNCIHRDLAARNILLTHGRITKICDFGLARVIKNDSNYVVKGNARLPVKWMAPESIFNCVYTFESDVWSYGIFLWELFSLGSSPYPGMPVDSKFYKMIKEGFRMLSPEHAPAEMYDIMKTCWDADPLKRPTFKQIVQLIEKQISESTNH
T1 sequence (P10721 26-976): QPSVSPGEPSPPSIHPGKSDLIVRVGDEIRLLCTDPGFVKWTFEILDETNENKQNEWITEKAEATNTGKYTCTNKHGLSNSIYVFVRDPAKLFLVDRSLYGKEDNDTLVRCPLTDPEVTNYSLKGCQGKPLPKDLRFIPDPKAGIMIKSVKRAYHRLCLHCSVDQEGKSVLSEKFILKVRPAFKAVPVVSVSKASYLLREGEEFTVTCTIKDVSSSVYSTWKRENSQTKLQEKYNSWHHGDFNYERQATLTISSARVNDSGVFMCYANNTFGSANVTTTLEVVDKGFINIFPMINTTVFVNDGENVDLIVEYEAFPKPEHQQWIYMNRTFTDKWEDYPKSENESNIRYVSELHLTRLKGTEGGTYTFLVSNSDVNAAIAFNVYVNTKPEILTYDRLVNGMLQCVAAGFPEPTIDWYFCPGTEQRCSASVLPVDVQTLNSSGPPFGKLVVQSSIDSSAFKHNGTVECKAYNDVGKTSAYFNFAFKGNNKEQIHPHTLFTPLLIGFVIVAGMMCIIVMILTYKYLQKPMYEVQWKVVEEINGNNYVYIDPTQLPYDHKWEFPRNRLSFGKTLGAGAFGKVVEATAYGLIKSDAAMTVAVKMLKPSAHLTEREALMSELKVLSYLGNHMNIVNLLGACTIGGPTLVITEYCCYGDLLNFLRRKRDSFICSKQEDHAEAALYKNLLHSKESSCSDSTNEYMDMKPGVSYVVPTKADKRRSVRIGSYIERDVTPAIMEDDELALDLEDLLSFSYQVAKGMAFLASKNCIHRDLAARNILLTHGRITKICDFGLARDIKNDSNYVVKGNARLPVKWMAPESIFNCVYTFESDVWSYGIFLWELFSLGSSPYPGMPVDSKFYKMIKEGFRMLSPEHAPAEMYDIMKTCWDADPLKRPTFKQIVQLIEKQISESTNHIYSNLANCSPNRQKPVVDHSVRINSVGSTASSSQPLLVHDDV

**Q.** Which results are given for `COc1cc2ncnc(-c3ccc(S(=O)(=O)Nc4ccc(F)cc4)cc3F)c2cc1OCCCN1CCOCC1` [P-0248, 3-fluoro-N-(4-fluorophenyl)-4-[7-methoxy-6-(3-morpholinopropoxy)quinazolin-4-yl]benzenesulfonamide]?
**A.** IC50 (c-kit kinase): 10 to 200 µM; IC50 (c-kit mutant D816V): 1 to 10 µM

**Q.** For `COc1ccc(S(=O)(=O)Nc2ccc(-c3ncnc4cc(OC)c(OCCCN5CCOCC5)cc34)c(F)c2)cc1` [P-0249, N-[3-fluoro-4-[7-methoxy-6-(3-morpholinopropoxy)quinazolin-4-yl]phenyl]-4-methoxy-benzenesulfonamide], which IC50 (c-kit kinase) is on record?
**A.** 1 to 10 µM

**Q.** What about the IC50 (c-kit mutant D816V) of the same molecule?
**A.** 0.0001 to 1 µM

**Q.** Which IC50 (c-kit kinase) does the source give for `COc1cc2ncnc(-c3ccc(NS(=O)(=O)c4ccc(Cl)cc4)cc3F)c2cc1OCCCN1CCOCC1` [P-0250, 4-chloro-N-[3-fluoro-4-[7-methoxy-6-(3-morpholinopropoxy)quinazolin-4-yl]phenyl]benzenesulfonamide] here?
**A.** 0.0001 to 1 µM

**Q.** And the IC50 (c-kit mutant D816V)?
**A.** 0.0001 to 1 µM

**Q.** `COc1cc2ncnc(-c3ccc(NS(=O)(=O)C4CC4)cc3F)c2cc1OCCCN1CCOCC1` [P-0251, N-[3-fluoro-4-[7-methoxy-6-(3-morpholinopropoxy)quinazolin-4-yl]phenyl]cyclopropanesulfonamide] was tested. Which IC50 (c-kit kinase) did it give?
**A.** 10 to 200 µM

**Q.** And the IC50 (c-kit mutant D816V)?
**A.** 0.0001 to 1 µM

**Q.** `COc1cc2ncnc(-c3ccc(NS(C)(=O)=O)cc3F)c2cc1OCCCN1CCOCC1` [P-0252, N-[3-fluoro-4-[7-methoxy-6-(3-morpholinopropoxy)quinazolin-4-yl]phenyl]methanesulfonamide] was tested. Which IC50 (c-kit kinase) did it give?
**A.** 10 to 200 µM

**Q.** And the IC50 (c-kit mutant D816V)?
**A.** 0.0001 to 1 µM

**Q.** Which IC50 (c-kit kinase) does the source give for `COc1cc2c(-c3ccc(NS(=O)(=O)N4CCCC4)cc3F)ncnc2cc1OCCCN1CCCCC1` [P-0253, N-[3-fluoro-4-[6-methoxy-7-[3-(1-piperidyl)propoxy]quinazolin-4-yl]phenyl]pyrrolidine-1-sulfonamide] here?
**A.** 1 to 10 µM

**Q.** And the IC50 (c-kit mutant D816V)?
**A.** 0.0001 to 1 µM

**Q.** For `[2H]C([2H])([2H])S(=O)(=O)Nc1ccc(-c2ncnc3cc(OCCCN4CCCCC4)c(OC)cc23)c(F)c1` [P-0254, 1,1,1-trideuterio-N-[3-fluoro-4-[6-methoxy-7-[3-(1-piperidyl)propoxy]quinazolin-4-yl]phenyl]methanesulfonamide], which IC50 (c-kit kinase) is on record?
**A.** 1 to 10 µM

**Q.** And the IC50 (c-kit mutant D816V)?
**A.** 0.0001 to 1 µM

**Q.** Which results are given for `COc1ccc(S(=O)(=O)Nc2ccc(-c3ncnc4cc(OCCCN5CCCCC5)c(OC)cc34)c(F)c2)cc1` [P-0255, N-[3-fluoro-4-[6-methoxy-7-[3-(1-piperidyl)propoxy]quinazolin-4-yl]phenyl]-4-methoxy-benzenesulfonamide]?
**A.** IC50 (c-kit kinase): 0.0001 to 1 µM; IC50 (c-kit mutant D816V): 0.0001 to 1 µM

**Q.** `COc1cc2c(-c3ccc(NS(=O)(=O)c4ccc(Cl)cc4)cc3F)ncnc2cc1OCCCN1CCCCC1` [P-0256, 4-chloro-N-[3-fluoro-4-[6-methoxy-7-[3-(1-piperidyl)propoxy]quinazolin-4-yl]phenyl]benzenesulfonamide] was tested. Which IC50 (c-kit kinase) did it give?
**A.** 0.0001 to 1 µM

**Q.** And the IC50 (c-kit mutant D816V)?
**A.** 0.0001 to 1 µM

**Q.** Which IC50 (c-kit kinase) does the source give for `COc1cc2c(-c3ccc(NS(=O)(=O)C4CC4)cc3F)ncnc2cc1OCCCN1CCCCC1` [P-0257, N-[3-fluoro-4-[6-methoxy-7-[3-(1-piperidyl)propoxy]quinazolin-4-yl]phenyl]cyclopropanesulfonamide] here?
**A.** 1 to 10 µM

**Q.** What about the IC50 (c-kit mutant D816V) of the same molecule?
**A.** 0.0001 to 1 µM

**Q.** How did the IC50 (c-kit kinase) turn out when `COc1cc2c(-c3ccc(NS(C)(=O)=O)cc3F)ncnc2cc1OCCCN1CCCCC1` [P-0258, N-[3-fluoro-4-[6-methoxy-7-[3-(1-piperidyl)propoxy]quinazolin-4-yl]phenyl]methanesulfonamide] was run?
**A.** 1 to 10 µM

**Q.** What about the IC50 (c-kit mutant D816V) of the same molecule?
**A.** 0.0001 to 1 µM

**Q.** With `COCCOc1cc2ncnc(-c3ccc(NS(=O)(=O)c4ccc(OC(F)F)cc4)cc3F)c2cc1OCCOC` [P-0259, N-[4-[6,7-bis(2-methoxyethoxy)quinazolin-4-yl]-3-fluoro-phenyl]-4-(difluoromethoxy)benzenesulfonamide] as the molecule, how does the IC50 (c-kit kinase) read?
**A.** 1 to 10 µM

**Q.** And the IC50 (c-kit mutant D816V)?
**A.** 0.0001 to 1 µM

**Q.** Which results are given for `COCCOc1cc2ncnc(-c3ccc(NS(=O)(=O)c4cccc(F)c4)cc3F)c2cc1OCCOC` [P-0260, N-[4-[6,7-bis(2-methoxyethoxy)quinazolin-4-yl]-3-fluoro-phenyl]-3-fluoro-benzenesulfonamide]?
**A.** IC50 (c-kit kinase): 1 to 10 µM; IC50 (c-kit mutant D816V): 0.0001 to 1 µM
